Columns and labels:
[1] = molecular target: T1, Amine oxidase [flavin-containing] A (Rattus norvegicus, UniProt P21396)
T1 sequence (P21396 whole entry): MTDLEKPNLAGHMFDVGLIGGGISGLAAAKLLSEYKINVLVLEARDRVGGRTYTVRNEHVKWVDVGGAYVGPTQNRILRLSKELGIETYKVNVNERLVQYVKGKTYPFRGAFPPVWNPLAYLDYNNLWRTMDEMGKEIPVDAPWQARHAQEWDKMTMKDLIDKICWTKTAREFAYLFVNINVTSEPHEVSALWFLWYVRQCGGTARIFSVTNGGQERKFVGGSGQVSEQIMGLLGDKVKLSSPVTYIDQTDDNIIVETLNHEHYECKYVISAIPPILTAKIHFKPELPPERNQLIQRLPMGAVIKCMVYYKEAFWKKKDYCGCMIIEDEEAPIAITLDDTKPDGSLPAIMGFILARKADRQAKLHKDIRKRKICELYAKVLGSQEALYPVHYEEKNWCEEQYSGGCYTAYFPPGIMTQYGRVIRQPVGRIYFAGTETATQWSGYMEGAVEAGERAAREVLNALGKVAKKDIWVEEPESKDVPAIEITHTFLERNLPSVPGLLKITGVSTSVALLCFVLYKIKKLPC

[2] = molecular target: T2, Amine oxidase [flavin-containing] B (Rattus norvegicus, UniProt P19643)
T2 sequence (P19643 whole entry): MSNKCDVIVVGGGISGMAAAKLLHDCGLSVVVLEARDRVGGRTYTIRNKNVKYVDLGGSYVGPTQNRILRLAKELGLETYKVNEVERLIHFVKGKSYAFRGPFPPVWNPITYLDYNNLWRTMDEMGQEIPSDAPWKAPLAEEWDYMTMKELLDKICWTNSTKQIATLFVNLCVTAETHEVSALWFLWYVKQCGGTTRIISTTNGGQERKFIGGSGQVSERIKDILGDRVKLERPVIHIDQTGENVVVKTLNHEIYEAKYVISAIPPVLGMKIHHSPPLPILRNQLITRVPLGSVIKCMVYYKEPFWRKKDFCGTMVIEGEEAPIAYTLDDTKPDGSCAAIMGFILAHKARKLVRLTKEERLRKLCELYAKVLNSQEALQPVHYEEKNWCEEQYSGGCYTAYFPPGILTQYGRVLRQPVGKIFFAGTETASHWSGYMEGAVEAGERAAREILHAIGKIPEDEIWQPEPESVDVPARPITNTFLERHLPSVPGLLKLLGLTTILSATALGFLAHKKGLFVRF

[3] = molecular target: Sodium-dependent noradrenaline transporter (Homo sapiens, UniProt P23975)
Sodium-dependent noradrenaline transporter, sequence (P23975 whole entry): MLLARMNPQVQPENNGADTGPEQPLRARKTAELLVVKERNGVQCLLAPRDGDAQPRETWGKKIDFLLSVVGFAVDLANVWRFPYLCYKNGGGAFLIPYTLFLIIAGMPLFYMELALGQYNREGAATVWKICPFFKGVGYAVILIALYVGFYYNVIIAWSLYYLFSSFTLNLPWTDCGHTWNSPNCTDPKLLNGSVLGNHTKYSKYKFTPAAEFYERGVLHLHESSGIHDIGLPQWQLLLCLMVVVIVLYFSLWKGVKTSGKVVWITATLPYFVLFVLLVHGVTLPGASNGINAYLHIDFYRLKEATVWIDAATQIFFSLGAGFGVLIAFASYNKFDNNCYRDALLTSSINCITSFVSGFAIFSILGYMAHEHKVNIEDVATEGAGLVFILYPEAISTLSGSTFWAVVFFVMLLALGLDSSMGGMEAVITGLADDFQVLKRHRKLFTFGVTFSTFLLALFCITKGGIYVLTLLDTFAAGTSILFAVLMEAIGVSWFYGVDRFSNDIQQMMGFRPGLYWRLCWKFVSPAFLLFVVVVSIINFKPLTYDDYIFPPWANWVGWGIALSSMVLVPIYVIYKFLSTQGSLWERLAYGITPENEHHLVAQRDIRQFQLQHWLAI

[4] = molecular target: T3, Alpha-1B adrenergic receptor (Homo sapiens, UniProt P35368)
T3 sequence (P35368 whole entry): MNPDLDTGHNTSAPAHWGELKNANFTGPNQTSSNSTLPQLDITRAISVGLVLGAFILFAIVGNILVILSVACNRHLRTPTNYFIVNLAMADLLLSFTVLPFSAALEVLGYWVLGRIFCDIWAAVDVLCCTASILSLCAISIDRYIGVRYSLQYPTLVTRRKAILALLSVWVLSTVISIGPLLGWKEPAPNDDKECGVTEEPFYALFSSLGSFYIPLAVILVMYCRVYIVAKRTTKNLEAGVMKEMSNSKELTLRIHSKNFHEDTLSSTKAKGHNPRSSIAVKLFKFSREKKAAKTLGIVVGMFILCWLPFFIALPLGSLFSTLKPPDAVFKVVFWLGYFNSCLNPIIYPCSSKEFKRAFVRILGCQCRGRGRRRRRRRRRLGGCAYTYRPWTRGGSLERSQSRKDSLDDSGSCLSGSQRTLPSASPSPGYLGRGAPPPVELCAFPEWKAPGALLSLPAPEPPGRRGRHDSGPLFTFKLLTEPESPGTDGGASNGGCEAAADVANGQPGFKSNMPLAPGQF

[5] = molecular target: T4, Alpha-1D adrenergic receptor (Homo sapiens, UniProt P25100)
T4 sequence (P25100 whole entry): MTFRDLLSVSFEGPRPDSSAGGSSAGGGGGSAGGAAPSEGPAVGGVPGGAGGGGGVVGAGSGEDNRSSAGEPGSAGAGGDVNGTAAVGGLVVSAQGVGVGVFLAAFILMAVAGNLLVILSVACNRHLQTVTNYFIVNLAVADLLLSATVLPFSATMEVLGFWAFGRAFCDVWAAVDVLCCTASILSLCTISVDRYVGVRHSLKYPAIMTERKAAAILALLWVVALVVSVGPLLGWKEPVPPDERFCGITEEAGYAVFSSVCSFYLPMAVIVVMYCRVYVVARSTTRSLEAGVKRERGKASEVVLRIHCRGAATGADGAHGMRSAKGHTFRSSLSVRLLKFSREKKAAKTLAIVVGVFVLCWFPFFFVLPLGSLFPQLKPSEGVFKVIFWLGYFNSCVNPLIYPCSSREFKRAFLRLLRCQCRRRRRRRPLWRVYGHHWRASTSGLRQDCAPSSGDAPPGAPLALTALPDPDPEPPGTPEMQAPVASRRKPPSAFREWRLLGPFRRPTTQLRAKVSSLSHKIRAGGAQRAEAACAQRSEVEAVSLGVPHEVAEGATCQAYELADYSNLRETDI

Nischarin = Nischarin (Rattus norvegicus, UniProt Q4G017)
Nischarin, sequence (Q4G017 whole entry): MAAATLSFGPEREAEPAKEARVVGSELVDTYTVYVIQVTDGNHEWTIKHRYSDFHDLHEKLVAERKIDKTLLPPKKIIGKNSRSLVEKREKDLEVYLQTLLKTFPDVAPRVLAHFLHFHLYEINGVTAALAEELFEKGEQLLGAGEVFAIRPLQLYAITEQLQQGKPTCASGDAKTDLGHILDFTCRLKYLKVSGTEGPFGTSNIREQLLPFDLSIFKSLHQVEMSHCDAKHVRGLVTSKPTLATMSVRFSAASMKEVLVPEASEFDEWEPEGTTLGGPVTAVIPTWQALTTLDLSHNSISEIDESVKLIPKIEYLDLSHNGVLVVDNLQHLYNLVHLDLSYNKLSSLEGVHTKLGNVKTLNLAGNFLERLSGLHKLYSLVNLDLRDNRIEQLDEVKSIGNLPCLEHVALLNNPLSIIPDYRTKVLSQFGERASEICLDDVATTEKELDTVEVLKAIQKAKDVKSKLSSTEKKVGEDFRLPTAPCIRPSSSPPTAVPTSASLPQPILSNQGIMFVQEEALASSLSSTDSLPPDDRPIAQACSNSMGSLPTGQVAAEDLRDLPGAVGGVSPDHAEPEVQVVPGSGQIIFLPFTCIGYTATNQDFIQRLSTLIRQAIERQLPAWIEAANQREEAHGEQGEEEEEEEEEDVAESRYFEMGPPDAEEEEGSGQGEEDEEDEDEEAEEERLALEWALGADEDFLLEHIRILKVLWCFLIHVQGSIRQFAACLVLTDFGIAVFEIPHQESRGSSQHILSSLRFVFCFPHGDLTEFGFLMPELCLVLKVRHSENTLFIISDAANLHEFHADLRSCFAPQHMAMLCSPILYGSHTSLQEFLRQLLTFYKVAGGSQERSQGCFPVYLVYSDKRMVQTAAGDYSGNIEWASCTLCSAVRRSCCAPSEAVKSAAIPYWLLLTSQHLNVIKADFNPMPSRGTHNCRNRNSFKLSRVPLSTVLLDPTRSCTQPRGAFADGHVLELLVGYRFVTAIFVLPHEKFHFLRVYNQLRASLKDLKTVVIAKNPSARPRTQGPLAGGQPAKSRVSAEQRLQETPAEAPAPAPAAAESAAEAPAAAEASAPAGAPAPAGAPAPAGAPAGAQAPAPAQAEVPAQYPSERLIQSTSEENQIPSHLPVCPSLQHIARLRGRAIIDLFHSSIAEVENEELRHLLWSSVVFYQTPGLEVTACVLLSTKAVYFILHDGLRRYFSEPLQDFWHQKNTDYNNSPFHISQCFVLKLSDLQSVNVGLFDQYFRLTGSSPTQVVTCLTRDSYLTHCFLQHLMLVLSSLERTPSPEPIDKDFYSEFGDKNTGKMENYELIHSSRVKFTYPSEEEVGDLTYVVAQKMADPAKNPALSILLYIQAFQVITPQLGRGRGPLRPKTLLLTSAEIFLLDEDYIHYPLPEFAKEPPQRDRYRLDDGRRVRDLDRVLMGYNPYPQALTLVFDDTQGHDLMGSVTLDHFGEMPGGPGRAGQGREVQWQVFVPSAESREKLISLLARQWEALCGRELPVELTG

Clc1cccc(Cl)c1N=C1NCCN1 [2-(2,6-dichloroanilino)-2-imidazoline]
Ki [1]: 1000 nM
Ki [2]: 1000 nM
Ki [3]: 1000 nM
Ki [4]: 316 nM
Ki [5]: 126 nM
Ki (Nischarin): 1000 nM

Reference: BindingDB's records for PubMed 11082457 (Centre De Recherches De Croissy, 2000)
